# Measured values as given in ChEMBL document CHEMBL1201862, “PubChem BioAssay data set” (2004).
#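 96-well plates; 48 h exposure; 5 concentrations. Endpoints by linear interpolation between flanking doses. Not reached: highest tested concentration assigned. The concentration for 50% growth inhibition is given as GI50.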 The source made the active and inactive calls. No stated cut-off is given here; in the data, active = GI50 up to about 1.1 µM and inactive = higher.
# Columns and labels:
# Experiment in all cases: NCI-60 cell line screen, 48 h
# 786-0 = test system: 786-0
# A498 = test system: A498
# A549 = test system: A549
# ACHN = test system: ACHN
# BT-549 = test system: BT-549
# CAKI-1 = test system: CAKI-1
# CCRF-CEM = test system: CCRF-CEM
# COLO 205 = test system: COLO 205
# DU-145 = test system: DU-145
# EKVX = test system: EKVX
# HCC 2998 = test system: HCC 2998
# HCT-116 = test system: HCT-116
# HCT-15 = test system: HCT-15
# HOP-62 = test system: HOP-62
# HOP-92 = test system: HOP-92
# HT-29 = test system: HT-29
# Hs-578T = test system: Hs-578T
# IGROV-1 = test system: IGROV-1
# KM12 = test system: KM12
# LOX IMVI = test system: LOX IMVI
# M14 = test system: M14
# MCF7 = test system: MCF7
# MDA-MB-231 = test system: MDA-MB-231
# MDA-MB-435 = test system: MDA-MB-435
# MDA-N = test system: MDA-N
# MOLT-4 = test system: MOLT-4
# Malme-3M = test system: Malme-3M
# NCI-H226 = test system: NCI-H226
# NCI-H23 = test system: NCI-H23
# NCI-H460 = test system: NCI-H460
# NCI-H522 = test system: NCI-H522
# NCI/ADR-RES = test system: NCI/ADR-RES
# OVCAR-3 = test system: OVCAR-3
# OVCAR-4 = test system: OVCAR-4
# OVCAR-5 = test system: OVCAR-5
# OVCAR-8 = test system: OVCAR-8
# PC-3 = test system: PC-3
# RPMI-8226 = test system: RPMI-8226
# RXF 393 = test system: RXF 393
# SF-268 = test system: SF-268
# SF-295 = test system: SF-295
# SF-539 = test system: SF-539
# SK-MEL-28 = test system: SK-MEL-28
# SK-MEL-2 = test system: SK-MEL-2
# SK-MEL-5 = test system: SK-MEL-5
# SK-OV-3 = test system: SK-OV-3
# SN12C = test system: SN12C
# SNB-19 = test system: SNB-19
# SNB-75 = test system: SNB-75
# SR = test system: SR
# SW-620 = test system: SW-620
# T47D = test system: T47D
# TK-10 = test system: TK-10
# U-251 = test system: U-251
# UACC-257 = test system: UACC-257
# UACC-62 = test system: UACC-62
# UO-31 = test system: UO-31
# HL-60 = test system: HL-60
# K562 = test system: K562
smiles,measurement,setting,value
O=C(O)CSc1ccc(N=C=S)cc1,GI50,786-0,82.6 µM (inactive)
same,GI50,A498,52.2 µM (inactive)
same,GI50,A549,> 100 µM (inactive)
same,GI50,ACHN,> 100 µM (inactive)
same,GI50,BT-549,56.2 µM (inactive)
same,GI50,CAKI-1,> 100 µM (inactive)
same,GI50,CCRF-CEM,12.6 µM (inactive)
same,GI50,COLO 205,53.2 µM (inactive)
same,GI50,DU-145,75.2 µM (inactive)
same,GI50,EKVX,> 100 µM (inactive)
same,GI50,HCC 2998,31.1 µM (inactive)
same,GI50,HCT-116,64.3 µM (inactive)
same,GI50,HCT-15,62.8 µM
same,GI50,HOP-62,54.1 µM (inactive)
same,GI50,HOP-92,> 100 µM (inactive)
same,GI50,HT-29,> 100 µM (inactive)
same,GI50,Hs-578T,47.5 µM (inactive)
same,GI50,IGROV-1,> 100 µM (inactive)
same,GI50,KM12,> 100 µM (inactive)
same,GI50,LOX IMVI,48.6 µM (inactive)
same,GI50,M14,86.1 µM (inactive)
same,GI50,MCF7,56 µM (inactive)
same,GI50,MDA-MB-231,84.1 µM (inactive)
same,GI50,MDA-MB-435,81.8 µM (inactive)
same,GI50,MDA-N,54.1 µM (inactive)
same,GI50,MOLT-4,20.4 µM (inactive)
same,GI50,Malme-3M,27.4 µM (inactive)
same,GI50,NCI-H226,54.5 µM (inactive)
same,GI50,NCI-H23,78.9 µM (inactive)
same,GI50,NCI-H460,56.9 µM (inactive)
same,GI50,NCI-H522,19.1 µM (inactive)
same,GI50,NCI/ADR-RES,> 100 µM (inactive)
same,GI50,OVCAR-3,94 µM (inactive)
same,GI50,OVCAR-4,> 100 µM (inactive)
same,GI50,OVCAR-5,> 100 µM (inactive)
same,GI50,OVCAR-8,71.4 µM (inactive)
same,GI50,PC-3,73.3 µM (inactive)
same,GI50,RPMI-8226,20.8 µM (inactive)
same,GI50,RXF 393,28.4 µM (inactive)
same,GI50,SF-268,71.6 µM (inactive)
same,GI50,SF-295,89.3 µM (inactive)
same,GI50,SF-539,30.5 µM (inactive)
same,GI50,SK-MEL-28,34.8 µM (inactive)
same,GI50,SK-MEL-2,73.3 µM (inactive)
same,GI50,SK-MEL-5,37.8 µM (inactive)
same,GI50,SK-OV-3,> 100 µM (inactive)
same,GI50,SN12C,39.3 µM (inactive)
same,GI50,SNB-19,> 100 µM (inactive)
same,GI50,SNB-75,> 100 µM (inactive)
same,GI50,SR,3.43 µM (inactive)
same,GI50,SW-620,> 100 µM (inactive)
same,GI50,T47D,72.4 µM (inactive)
same,GI50,TK-10,75 µM (inactive)
same,GI50,U-251,72.3 µM (inactive)
same,GI50,UACC-257,29.5 µM (inactive)
same,GI50,UACC-62,61 µM (inactive)
same,GI50,UO-31,> 100 µM (inactive)
Nc1nc(-c2cccc([N+](=O)[O-])c2)cc(-c2cc(-c3cccc([N+](=O)[O-])c3)nc(N)n2)n1,GI50,786-0,> 100 µM (inactive)
same,GI50,A498,> 100 µM (inactive)
same,GI50,A549,> 100 µM (inactive)
same,GI50,ACHN,> 100 µM (inactive)
same,GI50,BT-549,> 100 µM (inactive)
same,GI50,CAKI-1,> 100 µM (inactive)
same,GI50,COLO 205,> 100 µM (inactive)
same,GI50,DU-145,> 100 µM (inactive)
same,GI50,EKVX,> 100 µM (inactive)
same,GI50,HCC 2998,> 100 µM (inactive)
same,GI50,HCT-116,> 100 µM (inactive)
same,GI50,HCT-15,> 100 µM
same,GI50,HL-60,> 100 µM (inactive)
same,GI50,HOP-62,> 100 µM (inactive)
same,GI50,HOP-92,> 100 µM (inactive)
same,GI50,HT-29,> 100 µM (inactive)
same,GI50,Hs-578T,> 100 µM (inactive)
same,GI50,IGROV-1,> 100 µM (inactive)
same,GI50,K562,> 100 µM (inactive)
same,GI50,KM12,> 100 µM (inactive)
same,GI50,LOX IMVI,> 100 µM (inactive)
same,GI50,M14,> 100 µM (inactive)
same,GI50,MCF7,> 100 µM (inactive)
same,GI50,MDA-MB-231,> 100 µM (inactive)
same,GI50,MDA-MB-435,> 100 µM (inactive)
same,GI50,MDA-N,> 100 µM (inactive)
same,GI50,MOLT-4,> 100 µM (inactive)
same,GI50,Malme-3M,> 100 µM (inactive)
same,GI50,NCI-H226,> 100 µM (inactive)
same,GI50,NCI-H23,> 100 µM (inactive)
same,GI50,NCI-H460,> 100 µM (inactive)
same,GI50,NCI-H522,> 100 µM (inactive)
same,GI50,NCI/ADR-RES,> 100 µM (inactive)
same,GI50,OVCAR-3,> 100 µM (inactive)
same,GI50,OVCAR-4,> 100 µM (inactive)
same,GI50,OVCAR-5,> 100 µM (inactive)
same,GI50,OVCAR-8,> 100 µM (inactive)
same,GI50,PC-3,> 100 µM (inactive)
same,GI50,RPMI-8226,> 100 µM (inactive)
same,GI50,RXF 393,> 100 µM (inactive)
same,GI50,SF-268,> 100 µM (inactive)
same,GI50,SF-295,> 100 µM (inactive)
same,GI50,SF-539,> 100 µM (inactive)
same,GI50,SK-MEL-28,> 100 µM (inactive)
same,GI50,SK-MEL-2,> 100 µM (inactive)
same,GI50,SK-MEL-5,> 100 µM (inactive)
same,GI50,SK-OV-3,> 100 µM (inactive)
same,GI50,SN12C,> 100 µM (inactive)
same,GI50,SNB-19,> 100 µM (inactive)
same,GI50,SR,> 100 µM (inactive)
same,GI50,SW-620,> 100 µM (inactive)
same,GI50,T47D,> 100 µM (inactive)
same,GI50,TK-10,> 100 µM (inactive)
same,GI50,U-251,> 100 µM (inactive)
same,GI50,UACC-257,> 100 µM (inactive)
same,GI50,UACC-62,> 100 µM (inactive)
same,GI50,UO-31,> 100 µM (inactive)
